pEC50, pIC50: −log10 of the molar value.
Legend:
[1] = biological target: T1, NAD-dependent protein deacetylase sirtuin-3, mitochondrial (Homo sapiens, UniProt Q9NTG7); experiment: Activation of SIRT3 (unknown origin)
T1 sequence (Q9NTG7 whole entry): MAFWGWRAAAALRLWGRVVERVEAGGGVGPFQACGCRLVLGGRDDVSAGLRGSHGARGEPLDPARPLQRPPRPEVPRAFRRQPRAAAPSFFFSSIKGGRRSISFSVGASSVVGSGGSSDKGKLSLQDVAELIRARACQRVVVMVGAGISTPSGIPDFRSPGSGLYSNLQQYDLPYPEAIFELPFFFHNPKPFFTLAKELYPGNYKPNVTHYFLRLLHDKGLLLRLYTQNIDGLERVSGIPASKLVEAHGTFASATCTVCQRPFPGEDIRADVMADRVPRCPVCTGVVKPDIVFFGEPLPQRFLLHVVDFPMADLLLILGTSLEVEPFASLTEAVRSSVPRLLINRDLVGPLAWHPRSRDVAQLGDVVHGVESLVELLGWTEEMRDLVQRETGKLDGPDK

[2] = test system: MDA-MB-231; experiment: Antiproliferative activity against human MDA-MB-231 cells assessed as inhibition of cell proliferation by MTT assay
[3] = test system: BT-549; experiment: Antiproliferative activity against human BT-549 cells assessed as inhibition of cell proliferation by MTT assay

Row | Structure (SMILES) | pEC50 [1] | pIC50 [2] | pIC50 [3]
1 | CC(C)C[C@@H]1NC(=O)CCN2C(=O)CC3(CC(C)(C)C(=O)N3S(=O)(=O)c3cccc(c3)C(=O)OCCOC(=O)[C@H](Cc3ccccc3)NC1=O)C2=O (some centres undefined) | 4.53 |  | 
2 | CCOC(=O)C1=CN(C(=O)c2cc(OC)c(OC)c(OC)c2)C=C(C(=O)OCC)C1c1ccc(S(C)(=O)=O)cc1 |  | 4.85 | 5.09
3 | CCOC(=O)C1=CN(C(=O)c2ccc(OC)c(OC)c2)C=C(C(=O)OCC)C1c1ccc(S(C)(=O)=O)cc1 |  | 4.82 | 4.92
4 | CCOC(=O)C1=CN(C(=O)c2cc(OC)c(OC)c(OC)c2)C=C(C(=O)OCC)C1c1ccccc1 |  | 5.28 | 5.32
5 | CCOC(=O)C1=CN(C(=O)c2cc(OC)c(OC)c(OC)c2)C=C(C(=O)OCC)C1c1cnc(Cl)c(Cl)c1 |  | 5.24 | 5.56

Reference: ChEMBL document CHEMBL6078710, “Design, synthesis and biological evaluation of new SIRT3 activators for the treatment of triple-negative breast cancer” (Bioorg Med Chem, 2025)
